Measured values as given in publication PMC9849758, “Chemically diverse activity-based probes with unexpected inhibitory mechanisms targeting trypsin-like serine proteases” (Frontiers in Chemistry, 2023).
Entries after “also recorded” stand apart in the source; their conditions may differ.

What was measured:
Type in all cases: biochemical
uPA = molecular target: T1, uPA (Homo sapiens, UniProt P00749); experiment: Kinetic progress curves (kapp, mechanism); conditions: for uPA kapp: apparent second-order rate constant from progress curves, mean ± SD; for uPA mechanism of inhibition: defined by the progress curves: slow-binding (Rev.) or irreversible (Irrev.)
T1 construct: purchased HYPHEN BioMed
Procedure: (§1) Because the compounds described in this paper were previously described as irreversible inhibitors, the IC50 value is inversely correlated with the second-order rate constant of inactivation. For a simple pseudo-first-order inactivation process, the activity after incubation with inhibitor (vi) varies with the inhibitor concentration (i), as described in the following equation: vi=v0·e^−kit where v0 is the activity in the absence of an inhibitor, k is the second-order rate constant of inactivation, and t is the time. The inactivation rate constant was determined from the time course of inhibition.
(§2) Kinetic assays were performed in the following manner. The inhibitor was mixed with the substrate, and the buffer solution with the enzyme was added at the time zero. The progress curves show the release of pNA or AMC as a function of time. Initially, no inhibitor is bound to the enzyme, and the tangent to the progress curve (dA/dt) is proportional to the free enzyme concentration. The free enzyme concentration decreases over time due to inhibitor binding kinetics, as described above. Progress curves were recorded in pseudo-first-order conditions ([I]0>>[E]0) and with less than 10% conversion of the substrate during the entire time course. In these conditions, dA/dt decreases exponentially with time. The progress curves were fitted with the integrated rate equation with GraFit7 to yield a value for kobs, a pseudo-first-order rate constant. At=Ao+vs∙t+vi−vs∙1−e^−kobs∙t/kobs where At is the absorbance at time t, A0 is the absorbance at time zero, vi is the initial rate and vs is the velocity at the steady-state.
(§3) The apparent second-order rate constant (kapp) was calculated from the slope of the linear part of the plot of kobs vs. the inhibitor concentration ([I]0). In the case of competition between the inhibitor and the substrate, kapp is smaller than the “real” second-order rate constant k discussed above because a certain fraction of the enzyme is present as an enzyme-substrate complex. kapp depends on the substrate concentration used in the experiment, as described by [Lambeir et al. (1996)].
(§4) The apparent equilibrium constants were obtained from the following equations, vi/vo=1/1+I/K1; vS/vo=1/1+I/KI* where vi is the initial rate, vs is the steady-state velocity and vo is the uninhibited initial rate.

β-tryptase [1] = molecular target: T2, β-tryptase (Homo sapiens, UniProt P20231); experiment: Jump dilution, determination of inhibition type; set-up: purchased EnzoLife Sciences; conditions: inhibitor at 10 times IC50, 15 min, diluted 10-fold or 100-fold; Rev./Irrev.
Procedure: The dissociation of the enzyme-inhibitor complex was monitored by substrate hydrolysis over time ([Joossens et al., 2006]).
Because ABPs are designed to be irreversible serine protease inhibitors, the IC50 is exclusively used as a first discriminatory evaluation. When an inhibitor is irreversible, its IC50 value not only depends on the substrate and enzyme concentration but also on the time of incubation with the enzyme before the reaction is started by adding the substrate. […] The progress curve in the presence of an irreversible inhibitor will show final velocities equal to zero (Figure 6C). In contrast, for a reversible inhibitor, progress curves have a non-zero final steady-state velocity (Figure 6A) ([McWhirter, 2021]). To corroborate the inhibitory mechanism of the compounds, jump-dilution assays were performed. These use an inhibitor concentration of 10-fold the IC50 for the incubation, and a posteriori, the reaction mixture is diluted 10-fold or 100-fold before adding the substrate. In the case of an irreversible inhibitor, enzymatic activity is not regained (Figure 6D), whereas, in the case of a reversible compound, a slow release of the inhibitor and a gradual increase of the enzymatic activity rate is observed (Figure 6B) ([Copeland, 2013]; [McWhirter, 2021]). The jump-dilution assays confirmed the behavior described by the progress curves.
2.2.2 Jump dilution results
Supplementary Table 2. Jump dilution of selected alkyne and desthiobiotin probes against a panel of trypsin-like serine proteases. […]
# R R DtBa 3 tryptase Thrombin uPA CatG
32b H Alk Irrev. Irrev. Rev. Irrev. Rev.
45b DtB Irrev. Irrev. Rev. N.D. N.D.
33b Alk Irrev. Irrev. Rev. Irrev. Rev.
46b Cl DtB Irrev. Irrev. Rev. N.D. N.D.
34b H Alk Rev. Rev. Rev. Irrev. Rev.
50b DtB Rev. Rev. Rev. Irrev. Rev.
35b Alk Rev. Rev. Rev. Irrev. Rev.
52b NHCOMe DtB Rev. Rev. Rev. Irrev. Rev.
36b Alk Rev. Rev. Rev. Irrev. Rev.
54b Cl DtB Rev. Rev. Rev. Irrev. Rev.
37b Alk Irrev. Irrev. N.D. Irrev. Irrev.
55b H DtB Irrev. Irrev. N.D. Irrev. Irrev.
38b Alk Irrev. Irrev. N.D. Irrev. Irrev.
56b NHCOMe DtB Irrev. Irrev. N.D. Irrev. Irrev.
39b Alk Irrev. Irrev. N.D. Irrev. Rev.
57b Cl DtB Irrev. Irrev. N.D. Irrev. Rev.
41b H Alk Irrev. Irrev. Irrev. N.D. N.D.
31b Pro-Lys H Alk Irrev. Irrev. Irrev. Irrev. N.D. a Alk: ABP precursor bearing an alkyne; DtB: desthiobiotin probe b Panel of serine proteases abbreviations: urokinase plasminogen activator (uPA), cathepsin G (catG) N.D.: IC50 is greater than 10µM, and jump dilution was not performed
2.2.3 Progress curves and Jump dilution experiments
Kinetic assays were performed in the following manner. The inhibitor was mixed with the substrate, and the buffer solution with the enzyme was added at the time zero. The progress curves show the release of para-nitroaniline (pNA) or 7-amino-4-methyl coumarin (AMC) as a function of time.
To monitor the dissociation of the inhibitor-enzyme, aliquots of the enzyme were incubated at 37 °C without and with the inhibitor at a concentration 10 times higher than its IC 50. The enzyme […]
min, the aliquots were diluted 10-fold or 100-fold into the substrate concentration and assay buffer used for the IC50 determination. The dissociation of the enzyme-inhibitor complex was monitored by substrate hydrolysis over time. Blue lines represent the control where no inhibitor was present. Pink lines represent the assay with inhibitor.

CatG = molecular target: T3, CatG (Homo sapiens, UniProt P08311); experiment: Kinetic progress curves (kapp, mechanism); set-up: Cathepsin G (cathepsin G human neutrophil, Sigma-Aldrich); purchased Sigma-Aldrich; host or cells: human neutrophil; conditions: for CatG mechanism of inhibition: defined by the progress curves: slow-binding (Rev.) or irreversible (Irrev.); for CatG kapp: apparent second-order rate constant from progress curves, mean ± SD
T3 sequence (P08311 21-255): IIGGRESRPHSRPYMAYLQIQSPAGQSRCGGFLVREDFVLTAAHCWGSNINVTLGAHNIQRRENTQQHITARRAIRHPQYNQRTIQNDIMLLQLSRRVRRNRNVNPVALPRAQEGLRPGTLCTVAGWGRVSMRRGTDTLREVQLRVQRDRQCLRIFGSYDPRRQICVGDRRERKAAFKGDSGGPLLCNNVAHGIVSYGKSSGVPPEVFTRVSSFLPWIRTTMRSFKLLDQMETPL
Procedure: as §1, §2, §3, §4

β-tryptase [2] = molecular target: T2, β-tryptase; experiment: Kinetic progress curves (kapp, K1, KI*, mechanism); set-up: purchased EnzoLife Sciences; conditions: for β-tryptase kapp: apparent second-order rate constant from progress curves; for β-tryptase kapp / Ki: mean ± SD; for β-tryptase mechanism of inhibition: defined by the progress curves: slow-binding (Rev.) or irreversible (Irrev.)
Procedure: as §1, §2, §3, §4

[3] = β-tryptase K1, apparent equilibrium constant of the first step of slow-binding
[4] = β-tryptase KI*, apparent equilibrium constant of the overall process

T2 sequence (P20231 31-275): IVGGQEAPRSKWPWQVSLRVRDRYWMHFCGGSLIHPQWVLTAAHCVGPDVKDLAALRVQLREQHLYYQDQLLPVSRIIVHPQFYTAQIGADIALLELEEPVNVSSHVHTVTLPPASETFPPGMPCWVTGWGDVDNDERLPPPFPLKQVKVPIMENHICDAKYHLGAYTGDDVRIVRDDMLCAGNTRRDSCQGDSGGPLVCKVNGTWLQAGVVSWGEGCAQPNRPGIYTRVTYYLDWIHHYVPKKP

| Compound | uPA kapp (uPA) | uPA mechanism of inhibition (uPA) | β-tryptase jump dilution result (β-tryptase [1]) | CatG mechanism of inhibition (CatG) | β-tryptase kapp (β-tryptase [2]) | β-tryptase mechanism of inhibition (β-tryptase [2]) | Ki (β-tryptase [2]; [3]) [µM] | Ki (β-tryptase [2]; [4]) [µM] | CatG kapp (CatG) [M⁻¹ s⁻¹] |
| --- | --- | --- | --- | --- | --- | --- | --- | --- | --- |
| C#CCCCOC(=O)NC(Cc1ccc(NC(=N)N)cc1)P(=O)(Oc1ccc(Cl)cc1)Oc1ccc(Cl)cc1 (stereo not drawn) [36b] | 320000 ± 29000 M⁻¹ s⁻¹ | Irrev. | Rev. | * ^d Rev. | 61 × 10^3 ± 6860 M^−1 s^−1 | reversible and Rev. | 0.34 ± 0.07 | 0.09 ± 0.01 | – |
| C#CCCCOC(=O)NC(CCCNC(=N)N)P(=O)(Oc1ccccc1)Oc1ccccc1 (stereo not drawn) [32b] | 41 ± 4 M⁻¹ s⁻¹ | Irrev. | Irrev. | * ^d Rev. | 41 ± 5 M⁻¹ s⁻¹ | Irrev. | – | – | – |
| C#CCCCOC(=O)NC(Cc1ccc(NC(=N)N)cc1)P(=O)(Oc1ccc(NC(C)=O)cc1)Oc1ccc(NC(C)=O)cc1 (stereo not drawn) [35b] | 130000 ± 30000 M⁻¹ s⁻¹ | Irrev. | Rev. | Rev. | 70 × 10^2 ± 582 M^−1 s^−1 | Rev. | 3.2 ± 1.8 | 0.12 ± 0.01 | 477 ± 67 |
| C#CCCCOC(=O)NC(CCCNC(=N)N)P(=O)(Oc1ccc(Cl)cc1)Oc1ccc(Cl)cc1 (stereo not drawn) [33b] | 15 × 10^2 ± 12 M^−1 s^−1 | irreversibility; also recorded: Irrev | Irrev. | * ^d Rev. | 28 × 10^2 ± 82 M^−1 s^−1 | irreversibility; also recorded: irreversible; also recorded: Irrev | – | – | – |
| C#CCCCOC(=O)NC(c1ccc(NC(=N)N)cc1)P(=O)(Oc1ccc(Cl)cc1)Oc1ccc(Cl)cc1 (stereo not drawn) [39b, Pent-4-yn-1-yl ((bis(4-chlorophenoxy)phosphoryl)(4-guanidinophenyl)methyl)carbamate] | – | Irrev. | Irrev. | reversibly and Rev. | – | irreversible; also recorded: Irrev | – | – | – |
| C#CCCCOC(=O)NC(Cc1ccc(NC(=N)N)cc1)P(=O)(Oc1ccccc1)Oc1ccccc1 (stereo not drawn) [34b] | 75 × 10^2 ± 725 M^−1 s^−1 | Irrev. | Rev. | * ^d Rev. | 712 ± 41 M⁻¹ s⁻¹ | Rev. | 15.8 ± 5 | 1.11 ± 0.09 | – |
| CC(=O)Nc1ccc(OP(=O)(Oc2ccc(NC(C)=O)cc2)C(Cc2ccc(NC(=N)N)cc2)NC(=O)OCCCc2cn(CCOCCOCCOCCNC(=O)CCCCC[C@H]3NC(=O)N[C@H]3C)nn2)cc1 (stereo partly drawn) [52b] | 38 × 10^3 ± 4175 M^−1 s^−1 | Irrev. | Rev. and Reversible | * ^d Rev. | 18 × 10^3 ± 1184 M^−1 s^−1 | Reversible and Rev. | 0.68 ± 0.07 | 0.06 ± 0.003 | – |
| C#CCCCOC(=O)NC(c1ccc(NC(=N)N)cc1)P(=O)(Oc1ccccc1)Oc1ccccc1.O=C(O)C(F)(F)F (stereo not drawn) [37b, Pent-4-yn-1-yl ((diphenoxyphosphoryl)(4-guanidinophenyl)methyl)carbamate trifluoroacetate salt] | 124 ± 23 M⁻¹ s⁻¹ | Irrev. | Irrev. | Irrev. | 375 ± 34 M⁻¹ s⁻¹ | Irrev. | – | – | 582 ± 2 |
| C[C@@H]1NC(=O)N[C@@H]1CCCCCC(=O)NCCOCCOCCOCCn1cc(CCCOC(=O)NC(c2ccc(NC(=N)N)cc2)P(=O)(Oc2ccccc2)Oc2ccccc2)nn1 (stereo partly drawn) [55b] | 77 ± 1 M⁻¹ s⁻¹ | Irrev. | Irrev. | Irrev. | 347 ± 19 M⁻¹ s⁻¹ | Irrev. | – | – | 301 ± 85 |
